Measured values as given in patent US8940798B2, “Compounds useful for treating and/or preventing disease-associated bone loss” (Centre National de al Recherche Scientifique (CNRS), priority 2011, dated 2015).

Columns and labels:
Dock5-DHR2 = target: T1, Dock5-DHR2 (Mus musculus, UniProt B2RY04); experiment: Yeast exchange assay screening for Dock5 inhibitors; type: cell-based; settings: screen of 2,640 compounds at 100 μM, 1% DMSO
T1 construct: Dock5 DHR2 domain (aminoacids E1119 to L1667) was cloned into pEGFP (Clontech) or myc tagged in pRs426Met (21); expressed in transfected cells; host or cells: HEK-293T cells
T1 sequence (B2RY04 1119-1667): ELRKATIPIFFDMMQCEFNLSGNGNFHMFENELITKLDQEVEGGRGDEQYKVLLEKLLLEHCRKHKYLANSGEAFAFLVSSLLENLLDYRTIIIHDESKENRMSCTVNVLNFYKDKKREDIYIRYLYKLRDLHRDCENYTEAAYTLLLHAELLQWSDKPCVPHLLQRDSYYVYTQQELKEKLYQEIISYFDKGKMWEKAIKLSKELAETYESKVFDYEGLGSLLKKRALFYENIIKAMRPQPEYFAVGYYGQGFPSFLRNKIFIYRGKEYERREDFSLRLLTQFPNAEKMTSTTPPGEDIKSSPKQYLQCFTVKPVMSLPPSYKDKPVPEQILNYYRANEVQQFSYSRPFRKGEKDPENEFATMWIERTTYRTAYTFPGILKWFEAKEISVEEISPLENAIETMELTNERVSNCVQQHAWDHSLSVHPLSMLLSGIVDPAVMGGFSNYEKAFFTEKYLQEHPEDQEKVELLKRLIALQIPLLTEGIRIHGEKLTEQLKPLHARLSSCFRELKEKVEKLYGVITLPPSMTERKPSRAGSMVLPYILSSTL
Text: FIGS. 5A-5H: Inhibition of bone resorption by an inhibitor of Rac1 activation by Dock5. (FIG. 5A) Principle of the yeast exchange assay used to identify inhibitors of Dock5 exchange activity. Wild type Rac1 is fused to LexA DNA binding domain (LexA) and its effector Kinectin (Kin) to GAL4 activation domain (GAD). Expression of Dock5-DHR2 activates Rac1, which binds to kinectin, leading to the expression of his3 and then yeast […] for histidine. Inhibitors of Dock5-DHR2 revert Rac1 activation. (FIG. 5B) Growth curves of yeasts expressing Rac1 and Kinectin with (open triangles) and without (dots) Dock5-DHR2, in medium complemented (plain lines) or not (dotted lines) with histidine. (FIG. 5C) Structure of N-(3,5-dichlorophenyl)benzensulfonamide (C21). (FIG. 5D) Western blots showing total and GTPbound Rac1 (upper panels) and GFP and GFP-fused Dock5-DHR2 in extracts of 293T cells treated for 1 hour with the indicated concentrations of C21 in the presence of 1% DMSO. (FIG. 5E) Western blots showing total and GTP-bound Rac1 (upper panels) and GFP and GFP-fused TrioN in extracts of 293T cells treated as in FIG. 5D. (FIG. 5F) Number of OCs (OC) after a 24-hour incubation with the indicated concentrations of C21, expressed as a % of DMSO control (0 μM C21). […] (FIG. 5G) CTx concentration in the medium of OCs on bone in the absence (O) or presence of 25 μM C21. […]

DBA1 mice = experiment: Arthritis model induced by injecting bovine collagen into DBA1 mice; type: in vivo, mouse
Experimental: In inflammatory arthritis pathologies such as rheumatoid polyarthritis, the inflammatory reaction in the synovial tissue causes differentiation of osteoclasts that destroy the bone in the area of the joints (see FIG. 8). The arthritis model induced by injecting bovine collagen into DBA1 mice is classically used as a model for this pathology.
Protocol experiment 1: 2 naive DBA1 mice, 6 control mice injected with PBS and 8 test mice receiving the compound C21, 5 mg/d/kg, 5 days per week, as a retro-orbital sinus injection. The mice are distributed in 2 cages, with 1 naive mouse, 3 control mice and 4 test mice per cage. The animals, with the exception of the naive mice, receive an injection of […] of bovine collagen at day 0 and at day 20.
Protocol experiment 2: 4 naive DBA1 mice, 12 control mice injected with PBS and 12 test mice receiving the compound C21, 15 mg/d/kg, 5 days per week, as an intraperitoneal injection. The mice are distributed in 2 cages, with 2 naive mice, 6 control mice and 6 test mice per cage. The animals, with the exception of the naive mice, receive an injection of 100 μg of bovine collagen at day 0 and at day 20.
The arthritic score of each mouse is established twice per week between days 20 and D52, in order to measure swelling and deformation of the joints of the four limbs, an indication of the inflammatory response. The mice are sacrificed at D53, the legs are dissected and the structure of the bone surface of the metatarsi is imaged by micro-tomography in order to show the bone degradation at the area of the joints. The bone volume with respect to the total volume of the joint (BV/TV) decreases with the formation of resorption cavities. The measurements were performed on the joint of the central finger of the right metatarsus in experiment 1 and from the left and the right metatarsus in experiment 2. Anti-collagen IgG levels were measured in the serum of the mice in experiment 2 at day 52.

SMILES: O=S(=O)(Nc1cc(Cl)cc(Cl)c1)c1ccccc1 [C21, N-(3,5-dichlorophenyl)benzenesulfonamide]
- Inhibition of growth of Dock5 DHR2-expressing yeasts in Histidine deprived medium without affecting growth in Histidine complemented medium (Dock5-DHR2): identified
- Correlation between the arthritic score and BV/TV (DBA1 mice; experiment 1, 5 mg/d/kg): no correlation
- Mean arthritic score on D52 (DBA1 mice; experiment 1, 5 mg/d/kg, 5 days per week, retro-orbital sinus injection): 3.78±1.23
- Bone mass regardless of arthritic score (DBA1 mice; experiment 1, 5 mg/d/kg, BV/TV relative to arthritic score): maintenance of their bone mass
- Bone mass (BV/TV) by micro-tomography by comparison with the naive mice (DBA1 mice; experiment 1, 5 mg/d/kg, metatarsus joint, D53): did not have any BV/TV modification
- Number of mice of the 8 showing moderate bone degradation (DBA1 mice; experiment 1, 5 mg/d/kg, three-dimensional reconstruction of first joint of metatarsus): 1
- Correlation between the BV/TV and the arthritic score (DBA1 mice; experiment 2, 15 mg/d/kg intraperitoneal): no correlation
- Levels of anti-collagen IgGs compared with PBS mice (DBA1 mice; experiment 2, 15 mg/d/kg intraperitoneal, serum at day 52): non-significantly different
